Test system: EoL-1 (human eosinophilic leukaemia cell line) cells
Test: TNF-α-induced cytokine release, EoL-1 cells differentiated with PMA (Luminex)
Format: cell-based
Set-up: key to IL-1α (PMA), p of decrement / IL-1β (PMA), p of decrement / IL-1ra (PMA), p of decrement / IL-5 (PMA), p of decrement / IL-7 (PMA), p of decrement / IL-8 (PMA), p of decrement / IP-10 (PMA), p of decrement / MCP-1 (PMA), p of decrement / MIP-1β (PMA), p of decrement / RANTES (PMA), p of decrement / VEGF (PMA), p of decrement / Fractalkine (PMA), p of decrement / MIP-1α (PMA), p of decrement: ns = non significant
Procedure: EoL-1 (human eosinophilic leukaemia cell line) cells (Saito et al., 1985; Mayumi, 1992) were maintained in RPMI-1640 medium with L-glutamine supplemented with 10% (v/v) FBS at 37° C. in a humidified atmosphere with 5% CO2. Where indicated, 24 h before the experiment 25 ng/mL PMA ((phorbol 12-myristate 13-acetate, purchased from Sigma Aldrich) was added to the medium to induce eosinophil granulation and differentiation (Ohtsu et al., 1993; Zimmermann et al., 2000).
Half-million cells were aliquoted per point in a 24 well plate; each experiment was performed in triplicate and carried out in parallel with eosinophils differentiated and non differentiated with PMA (25 ng/mL, 24 h). Cells were suspended in low serum medium (RPMI-1640, 0.1% (v/v) FBS). TNF-α was used to induce cytokine secretion as previously described by Steube et al. (2000), and the net release was obtained by comparison to the basal (non-TNF-α treated). In the first experiment we evaluated the concentration and time relation between TNF-α stimulation and cytokine release. Therefore, 5, 10, and 25 ng/mL of TNF-α was administered to the cells at 0, ½, 1, 2, 3, 6, 12 and 24 h (data not shown). An aliquot of 150 μL of supernate was collected for cytokines' analysis. […] Differentiated and non-differentiated EoL-1 cells were exposed from 0.1 to 2.3 mM levocabastine ([…]Levocabastine 0.05% solution eye drops containing cyclodextrins, without benzalkonium chloride), and aliquots of the supernates were collected after 12 and 24 h. The content of cytokines at time zero was estimated by treating the cells with 400 nM calcimycin (A-23187), which is a cytolytic agent that frees all the mediators from the cytoplasmic compartment. In addition, for each experiment we tested the effect of the vehicle, which was added to the wells in a concentration equal to the maximum amount used for drug dilution.
Samples (supernates 12 and 24 h) in triplicate were analyzed using Luminex 200™ (Luminex, Austin, Tex.) and Beadview software v1.0 (Upstate Cell Signaling Solutions, Temecula, Calif.).
All data are presented as mean±SEM for the indicated number of experiments. Statistical significance was determined by Newman-Keuls test after ANOVA using GraphPad Prism (version 3.0; GraphPad Software Inc., San Diego, Calif., USA). P-values<0.05 were considered to be significant.

[1] = 24 h, Levocabastine 2 mM vs TNF-α
[2] = 24 h, TNF-α 5 ng + Levocabastine 2 mM vs TNF-α
[3] = 24 h, TNF-α 10 ng + Levocabastine 2 mM vs TNF-α
[4] = 24 h, TNF-α 20 ng + Levocabastine 2 mM vs TNF-α
[5] = 24 h, TNF-α 5, 10, 20 ng + Levocabastine 2 mM vs TNF-α
[6] = 24 h, VCAM-1 + Levocabastine 2 mM vs VCAM-1

C[C@@H]1CN([C@H]2CC[C@](C#N)(c3ccc(F)cc3)CC2)CC[C@]1(C(=O)O)c1ccccc1 [Levocabastine, levocabastine]
IL-12p40 (PMA), p of decrement [1]: P < 0.001
IP-10 (PMA), p of decrement [1]: ns
MCP-1 (PMA), p of decrement [1]: ns
MIP-1α (PMA), p of decrement [1]: Increase
MIP-1β (PMA), p of decrement [1]: Increase
RANTES (PMA), p of decrement [1]: Increase
TGF-α (PMA), p of decrement [1]: ns
VEGF (PMA), p of decrement [1]: P < 0.001
Fractalkine (PMA), p of decrement [2]: ns
G-CSF (PMA), p of decrement [2]: ns
GM CSF (PMA), p of decrement [2]: ns
IL-1β (PMA), p of decrement [2]: ns
IL-5 (PMA), p of decrement [2]: ns
IL-6 (PMA), p of decrement [2]: ns
IL-7 (PMA), p of decrement [2]: ns
IL-8 (PMA), p of decrement [2]: P < 0.001
IL-10 (PMA), p of decrement [2]: ns
IL-12p40 (PMA), p of decrement [2]: ns
IP-10 (PMA), p of decrement [2]: ns
MCP-1 (PMA), p of decrement [2]: ns
MIP-1α (PMA), p of decrement [2]: ns
MIP-1β (PMA), p of decrement [2]: ns
TGF-α (PMA), p of decrement [2]: ns
VEGF (PMA), p of decrement [2]: P < 0.05
Fractalkine (PMA), p of decrement [3]: ns
G-CSF (PMA), p of decrement [3]: ns
GM CSF (PMA), p of decrement [3]: ns
IL-1β (PMA), p of decrement [3]: ns
IL-5 (PMA), p of decrement [3]: ns
IL-6 (PMA), p of decrement [3]: ns
IL-7 (PMA), p of decrement [3]: ns
IL-8 (PMA), p of decrement [3]: P < 0.001
IL-10 (PMA), p of decrement [3]: ns
IL-12p40 (PMA), p of decrement [3]: ns
IP-10 (PMA), p of decrement [3]: ns
MCP-1 (PMA), p of decrement [3]: ns
MIP-1α (PMA), p of decrement [3]: ns
MIP-1β (PMA), p of decrement [3]: ns
TGF-α (PMA), p of decrement [3]: ns
VEGF (PMA), p of decrement [3]: ns
Fractalkine (PMA), p of decrement [4]: ns
G-CSF (PMA), p of decrement [4]: ns
GM CSF (PMA), p of decrement [4]: ns
IL-1β (PMA), p of decrement [4]: ns
IL-5 (PMA), p of decrement [4]: ns
IL-6 (PMA), p of decrement [4]: ns
IL-7 (PMA), p of decrement [4]: ns
IL-8 (PMA), p of decrement [4]: P < 0.001
IL-10 (PMA), p of decrement [4]: ns
IL-12p40 (PMA), p of decrement [4]: ns
IP-10 (PMA), p of decrement [4]: ns
MCP-1 (PMA), p of decrement [4]: ns
MIP-1α (PMA), p of decrement [4]: ns
MIP-1β (PMA), p of decrement [4]: ns
TGF-α (PMA), p of decrement [4]: ns
VEGF (PMA), p of decrement [4]: P < 0.05
IL-1ra (PMA), p of decrement [5]: increase of cytokine secretion
IL-1α (PMA), p of decrement [5]: increase of cytokine secretion
RANTES (PMA), p of decrement [5]: increase of cytokine secretion
Fractalkine (PMA), p of decrement (24 h, TNF-α vs Lev 0.1 mM): ns
IL-1ra (PMA), p of decrement (24 h, TNF-α vs Lev 0.1 mM): ns
IL-1α (PMA), p of decrement (24 h, TNF-α vs Lev 0.1 mM): ns
IL-1β (PMA), p of decrement (24 h, TNF-α vs Lev 0.1 mM): p < 0.05
IL-5 (PMA), p of decrement (24 h, TNF-α vs Lev 0.1 mM): ns
IL-7 (PMA), p of decrement (24 h, TNF-α vs Lev 0.1 mM): ns
IL-8 (PMA), p of decrement (24 h, TNF-α vs Lev 0.1 mM): ns
IP-10 (PMA), p of decrement (24 h, TNF-α vs Lev 0.1 mM): ns
MCP-1 (PMA), p of decrement (24 h, TNF-α vs Lev 0.1 mM): ns
MIP-1α (PMA), p of decrement (24 h, TNF-α vs Lev 0.1 mM): ns
MIP-1β (PMA), p of decrement (24 h, TNF-α vs Lev 0.1 mM): ns
RANTES (PMA), p of decrement (24 h, TNF-α vs Lev 0.1 mM): ns
VEGF (PMA), p of decrement (24 h, TNF-α vs Lev 0.1 mM): ns
Fractalkine (PMA), p of decrement (24 h, TNF-α vs Lev 0.5 mM): ns
IL-1ra (PMA), p of decrement (24 h, TNF-α vs Lev 0.5 mM): ns
IL-1α (PMA), p of decrement (24 h, TNF-α vs Lev 0.5 mM): ns
IL-1β (PMA), p of decrement (24 h, TNF-α vs Lev 0.5 mM): ns
IL-5 (PMA), p of decrement (24 h, TNF-α vs Lev 0.5 mM): ns
IL-7 (PMA), p of decrement (24 h, TNF-α vs Lev 0.5 mM): ns
IL-8 (PMA), p of decrement (24 h, TNF-α vs Lev 0.5 mM): ns
IP-10 (PMA), p of decrement (24 h, TNF-α vs Lev 0.5 mM): ns
MCP-1 (PMA), p of decrement (24 h, TNF-α vs Lev 0.5 mM): ns
MIP-1α (PMA), p of decrement (24 h, TNF-α vs Lev 0.5 mM): ns
MIP-1β (PMA), p of decrement (24 h, TNF-α vs Lev 0.5 mM): ns
RANTES (PMA), p of decrement (24 h, TNF-α vs Lev 0.5 mM): ns
VEGF (PMA), p of decrement (24 h, TNF-α vs Lev 0.5 mM): ns
Fractalkine (PMA), p of decrement (24 h, TNF-α vs Lev 1.0 mM): ns
IL-1ra (PMA), p of decrement (24 h, TNF-α vs Lev 1.0 mM): ns
IL-1α (PMA), p of decrement (24 h, TNF-α vs Lev 1.0 mM): ns
IL-1β (PMA), p of decrement (24 h, TNF-α vs Lev 1.0 mM): p < 0.05
IL-5 (PMA), p of decrement (24 h, TNF-α vs Lev 1.0 mM): ns
IL-7 (PMA), p of decrement (24 h, TNF-α vs Lev 1.0 mM): ns
IL-8 (PMA), p of decrement (24 h, TNF-α vs Lev 1.0 mM): ns
IP-10 (PMA), p of decrement (24 h, TNF-α vs Lev 1.0 mM): ns
MCP-1 (PMA), p of decrement (24 h, TNF-α vs Lev 1.0 mM): ns
MIP-1α (PMA), p of decrement (24 h, TNF-α vs Lev 1.0 mM): ns
MIP-1β (PMA), p of decrement (24 h, TNF-α vs Lev 1.0 mM): ns
RANTES (PMA), p of decrement (24 h, TNF-α vs Lev 1.0 mM): ns
VEGF (PMA), p of decrement (24 h, TNF-α vs Lev 1.0 mM): p < 0.05
Fractalkine (PMA), p of decrement (24 h, TNF-α vs Lev 2.3 mM): p < 0.01
IL-1ra (PMA), p of decrement (24 h, TNF-α vs Lev 2.3 mM): ns
IL-1α (PMA), p of decrement (24 h, TNF-α vs Lev 2.3 mM): ns
IL-1β (PMA), p of decrement (24 h, TNF-α vs Lev 2.3 mM): ns
IL-5 (PMA), p of decrement (24 h, TNF-α vs Lev 2.3 mM): ns
IL-7 (PMA), p of decrement (24 h, TNF-α vs Lev 2.3 mM): ns
IL-8 (PMA), p of decrement (24 h, TNF-α vs Lev 2.3 mM): ns
IP-10 (PMA), p of decrement (24 h, TNF-α vs Lev 2.3 mM): ns
MCP-1 (PMA), p of decrement (24 h, TNF-α vs Lev 2.3 mM): ns
MIP-1α (PMA), p of decrement (24 h, TNF-α vs Lev 2.3 mM): ns
MIP-1β (PMA), p of decrement (24 h, TNF-α vs Lev 2.3 mM): ns
RANTES (PMA), p of decrement (24 h, TNF-α vs Lev 2.3 mM): ns
VEGF (PMA), p of decrement (24 h, TNF-α vs Lev 2.3 mM): p < 0.01
Fractalkine (PMA), p of decrement [6]: ns
G-CSF (PMA), p of decrement [6]: Increase
GM-CSF (PMA), p of decrement [6]: ns
IL-1ra (PMA), p of decrement [6]: Increase
IL-1α (PMA), p of decrement [6]: Increase
IL-1β (PMA), p of decrement [6]: ns
IL-5 (PMA), p of decrement [6]: ns
IL-6 (PMA), p of decrement [6]: ns
IL-7 (PMA), p of decrement [6]: Increase
IL-8 (PMA), p of decrement [6]: Increase
IL-10 (PMA), p of decrement [6]: ns
IL-12p40 (PMA), p of decrement [6]: P < 0.01
IP-10 (PMA), p of decrement [6]: ns
MCP-1 (PMA), p of decrement [6]: Increase
MIP-1α (PMA), p of decrement [6]: Increase
MIP-1β (PMA), p of decrement [6]: Increase
RANTES (PMA), p of decrement [6]: Increase
TGF-α (PMA), p of decrement [6]: ns
VEGF (PMA), p of decrement [6]: P < 0.001
release of VEGF (FIG. 4 Panel A) (EoL-1 cells differentiated with PMA 24 h before the experiment): able to reduce the release
IL-8 release (FIG. 9) (PMA differentiated EoL-1 cells after TNF-α challenge): able to reduce

Reference: US20130289070A1, “Use of Levocabastine for Modulating Generation of Pro-Inflammatory Cytokines” (Bausch & Lomb Incorporated, priority 2007, published 2013)
